# Tests used:
# Assay type in all cases: functional
# [1] = tested on: Escherichia coli; assay: Antibacterial activity against Escherichia coli ATCC 8739 at 50 ug/ml after 24 hrs by agar well diffusion method; conditions: ATCC 8739, 24 h, read-out: DIZ
# [2] = tested on: Bacillus subtilis; assay: Antibacterial activity against Bacillus subtilis at 100 ug/ml after 24 hrs by agar well diffusion method; conditions: read-out: DIZ
# [3] = tested on: Rhizoctonia solani; assay: Antifungal activity against Rhizoctonia solani at 300 ug/ml after 72 hrs by agar well diffusion method; conditions: read-out: DIZ
# [4] = tested on: Fusarium oxysporum; assay: Antifungal activity against Fusarium oxysporum at 50 ug/ml after 72 hrs by agar well diffusion method; conditions: read-out: DIZ
# [5] = tested on: Escherichia coli; assay: Antibacterial activity against Escherichia coli ATCC 8739 at 100 ug/ml after 24 hrs by agar well diffusion method; conditions: ATCC 8739, 24 h, read-out: DIZ
# [6] = tested on: Klebsiella pneumoniae; assay: Antibacterial activity against Klebsiella pneumoniae at 50 ug/ml after 24 hrs by agar well diffusion method; conditions: read-out: DIZ
# [7] = tested on: Aspergillus flavus; assay: Antifungal activity against Aspergillus flavus at 500 ug/ml after 72 hrs by agar well diffusion method; conditions: read-out: DIZ
# [8] = tested on: Aspergillus niger; assay: Antifungal activity against Aspergillus niger at 500 ug/ml after 72 hrs by agar well diffusion method; conditions: read-out: DIZ
# [9] = tested on: Escherichia coli; assay: Antibacterial activity against Escherichia coli ATCC 8739 at 500 ug/ml after 24 hrs by agar well diffusion method; conditions: ATCC 8739, 24 h, read-out: DIZ
# [10] = tested on: Aspergillus flavus; assay: Antifungal activity against Aspergillus flavus at 100 ug/ml after 72 hrs by agar well diffusion method; conditions: read-out: DIZ
# [11] = tested on: Bacillus subtilis; assay: Antibacterial activity against Bacillus subtilis at 500 ug/ml after 24 hrs by agar well diffusion method; conditions: read-out: DIZ
# [12] = tested on: Aspergillus flavus; assay: Antifungal activity against Aspergillus flavus at 200 ug/ml after 72 hrs by agar well diffusion method; conditions: read-out: DIZ
# [13] = tested on: Rhizoctonia solani; assay: Antifungal activity against Rhizoctonia solani at 50 ug/ml after 72 hrs by agar well diffusion method; conditions: read-out: DIZ
# [14] = tested on: Fusarium oxysporum; assay: Antifungal activity against Fusarium oxysporum at 100 ug/ml after 72 hrs by agar well diffusion method; conditions: read-out: DIZ
# [15] = tested on: Staphylococcus aureus; assay: Antibacterial activity against Staphylococcus aureus ATCC 6538 at 100 ug/ml after 24 hrs by agar well diffusion method; conditions: ATCC 6538, 24 h, read-out: DIZ
# [16] = tested on: Rhizoctonia solani; assay: Antifungal activity against Rhizoctonia solani after 72 hrs by agar well diffusion method
# [17] = tested on: Bacillus subtilis; assay: Antibacterial activity against Bacillus subtilis at 200 ug/ml after 24 hrs by agar well diffusion method; conditions: read-out: DIZ
# [18] = tested on: Aspergillus niger; assay: Antifungal activity against Aspergillus niger at 100 ug/ml after 72 hrs by agar well diffusion method; conditions: read-out: DIZ
# [19] = tested on: Aspergillus niger; assay: Antifungal activity against Aspergillus niger after 72 hrs by agar well diffusion method
# [20] = tested on: Aspergillus niger; assay: Antifungal activity against Aspergillus niger at 200 ug/ml after 72 hrs by agar well diffusion method; conditions: read-out: DIZ
# [21] = tested on: Fusarium oxysporum; assay: Antifungal activity against Fusarium oxysporum at 300 ug/ml after 72 hrs by agar well diffusion method; conditions: read-out: DIZ
# [22] = tested on: Staphylococcus aureus; assay: Antibacterial activity against Staphylococcus aureus ATCC 6538 at 200 ug/ml after 24 hrs by agar well diffusion method; conditions: ATCC 6538, 24 h, read-out: DIZ
# [23] = tested on: Fusarium oxysporum; assay: Antifungal activity against Fusarium oxysporum at 200 ug/ml after 72 hrs by agar well diffusion method; conditions: read-out: DIZ
# [24] = tested on: Aspergillus niger; assay: Antifungal activity against Aspergillus niger at 300 ug/ml after 72 hrs by agar well diffusion method; conditions: read-out: DIZ
# [25] = tested on: Escherichia coli; assay: Antibacterial activity against Escherichia coli ATCC 8739 at 200 ug/ml after 24 hrs by agar well diffusion method; conditions: ATCC 8739, 24 h, read-out: DIZ
# [26] = tested on: Staphylococcus aureus; assay: Antibacterial activity against Staphylococcus aureus ATCC 6538 at 300 ug/ml after 24 hrs by agar well diffusion method; conditions: ATCC 6538, 24 h, read-out: DIZ
# [27] = tested on: Bacillus subtilis; assay: Antibacterial activity against Bacillus subtilis at 300 ug/ml after 24 hrs by agar well diffusion method; conditions: read-out: DIZ
# [28] = tested on: Escherichia coli; assay: Antibacterial activity against Escherichia coli ATCC 8739 after 24 hrs by agar well diffusion method; conditions: ATCC 8739, 24 h
# [29] = tested on: Rhizoctonia solani; assay: Antifungal activity against Rhizoctonia solani at 100 ug/ml after 72 hrs by agar well diffusion method; conditions: read-out: DIZ
# [30] = tested on: Aspergillus niger; assay: Antifungal activity against Aspergillus niger at 50 ug/ml after 72 hrs by agar well diffusion method; conditions: read-out: DIZ
# [31] = tested on: Klebsiella pneumoniae; assay: Antibacterial activity against Klebsiella pneumoniae at 100 ug/ml after 24 hrs by agar well diffusion method; conditions: read-out: DIZ
# [32] = tested on: Aspergillus flavus; assay: Antifungal activity against Aspergillus flavus after 72 hrs by agar well diffusion method
# [33] = tested on: Rhizoctonia solani; assay: Antifungal activity against Rhizoctonia solani at 500 ug/ml after 72 hrs by agar well diffusion method; conditions: read-out: DIZ
# [34] = tested on: Staphylococcus aureus; assay: Antibacterial activity against Staphylococcus aureus ATCC 6538 after 24 hrs by agar well diffusion method; conditions: ATCC 6538, 24 h
# [35] = tested on: Staphylococcus aureus; assay: Antibacterial activity against Staphylococcus aureus ATCC 6538 at 50 ug/ml after 24 hrs by agar well diffusion method; conditions: ATCC 6538, 24 h, read-out: DIZ
# [36] = tested on: Rhizoctonia solani; assay: Antifungal activity against Rhizoctonia solani at 200 ug/ml after 72 hrs by agar well diffusion method; conditions: read-out: DIZ
# [37] = tested on: Klebsiella pneumoniae; assay: Antibacterial activity against Klebsiella pneumoniae at 300 ug/ml after 24 hrs by agar well diffusion method; conditions: read-out: DIZ
# [38] = tested on: Klebsiella pneumoniae; assay: Antibacterial activity against Klebsiella pneumoniae at 500 ug/ml after 24 hrs by agar well diffusion method; conditions: read-out: DIZ
# [39] = tested on: Aspergillus flavus; assay: Antifungal activity against Aspergillus flavus at 300 ug/ml after 72 hrs by agar well diffusion method; conditions: read-out: DIZ
# [40] = tested on: Bacillus subtilis; assay: Antibacterial activity against Bacillus subtilis at 50 ug/ml after 24 hrs by agar well diffusion method; conditions: read-out: DIZ
# [41] = tested on: Aspergillus flavus; assay: Antifungal activity against Aspergillus flavus at 50 ug/ml after 72 hrs by agar well diffusion method; conditions: read-out: DIZ
# [42] = tested on: Escherichia coli; assay: Antibacterial activity against Escherichia coli ATCC 8739 at 300 ug/ml after 24 hrs by agar well diffusion method; conditions: ATCC 8739, 24 h, read-out: DIZ
# [43] = tested on: Staphylococcus aureus; assay: Antibacterial activity against Staphylococcus aureus ATCC 6538 at 500 ug/ml after 24 hrs by agar well diffusion method; conditions: ATCC 6538, 24 h, read-out: DIZ
# [44] = tested on: Klebsiella pneumoniae; assay: Antibacterial activity against Klebsiella pneumoniae after 24 hrs by agar well diffusion method
# [45] = tested on: Klebsiella pneumoniae; assay: Antibacterial activity against Klebsiella pneumoniae at 200 ug/ml after 24 hrs by agar well diffusion method; conditions: read-out: DIZ
# [46] = tested on: Bacillus subtilis; assay: Antibacterial activity against Bacillus subtilis after 24 hrs by agar well diffusion method
# [47] = tested on: Fusarium oxysporum; assay: Antifungal activity against Fusarium oxysporum at 500 ug/ml after 72 hrs by agar well diffusion method; conditions: read-out: DIZ
# [48] = tested on: Fusarium oxysporum; assay: Antifungal activity against Fusarium oxysporum after 72 hrs by agar well diffusion method
compound,measurement,setting,value
Cn1cc(C=C2C(=O)OC(C)(C)OC2=O)c2cc([N+](=O)[O-])ccc21,zone of inhibition at 50 µg/mL,[1],8 mm
same,zone of inhibition at 100 µg/mL,[2],9 mm
same,zone of inhibition at 300 µg/mL,[3],21 mm
same,zone of inhibition at 50 µg/mL,[4],7 mm
same,zone of inhibition at 100 µg/mL,[5],13 mm
same,zone of inhibition at 50 µg/mL,[6],9 mm
same,zone of inhibition at 500 µg/mL,[7],23 mm
same,zone of inhibition at 500 µg/mL,[8],25 mm
same,zone of inhibition at 500 µg/mL,[9],30 mm
same,zone of inhibition at 100 µg/mL,[10],9 mm
same,zone of inhibition at 500 µg/mL,[11],23 mm
same,zone of inhibition at 200 µg/mL,[12],12 mm
same,zone of inhibition at 50 µg/mL,[13],7 mm
same,zone of inhibition at 100 µg/mL,[14],12 mm
same,zone of inhibition at 100 µg/mL,[15],10 mm
same,MIC,[16],35 µg/mL
same,zone of inhibition at 200 µg/mL,[17],12 mm
same,zone of inhibition at 100 µg/mL,[18],10 mm
same,MIC,[19],40 µg/mL
same,zone of inhibition at 200 µg/mL,[20],14 mm
same,zone of inhibition at 300 µg/mL,[21],21 mm
same,zone of inhibition at 200 µg/mL,[22],14 mm
same,zone of inhibition at 200 µg/mL,[23],16 mm
same,zone of inhibition at 300 µg/mL,[24],18 mm
same,zone of inhibition at 200 µg/mL,[25],16 mm
same,zone of inhibition at 300 µg/mL,[26],18 mm
same,zone of inhibition at 300 µg/mL,[27],15 mm
same,MIC,[28],15 µg/mL
same,zone of inhibition at 100 µg/mL,[29],12 mm
same,zone of inhibition at 50 µg/mL,[30],6 mm
same,zone of inhibition at 100 µg/mL,[31],14 mm
same,MIC,[32],40 µg/mL
same,zone of inhibition at 500 µg/mL,[33],29 mm
same,MIC,[34],25 µg/mL
same,zone of inhibition at 50 µg/mL,[35],6 mm
same,zone of inhibition at 200 µg/mL,[36],16 mm
same,zone of inhibition at 300 µg/mL,[37],23 mm
same,zone of inhibition at 500 µg/mL,[38],31 mm
same,zone of inhibition at 300 µg/mL,[39],15 mm
same,zone of inhibition at 50 µg/mL,[40],4 mm
same,zone of inhibition at 50 µg/mL,[41],4 mm
same,zone of inhibition at 300 µg/mL,[42],20 mm
same,zone of inhibition at 500 µg/mL,[43],25 mm
same,MIC,[44],15 µg/mL
same,zone of inhibition at 200 µg/mL,[45],18 mm
same,MIC,[46],30 µg/mL
same,zone of inhibition at 500 µg/mL,[47],29 mm
same,MIC,[48],35 µg/mL
